Read-outs that look alike come from different tables or passages of the source.
Key:
Test in all cases: Agar dilution MIC, in vitro antibacterial activity test
Format in all cases: cell-based
[1] = system: Escherichia coli O 55; conditions: O55, 18 h
Protocol: (§1) The antibacterial activity of each of sulbactam and the compounds I, II, III and IV was measured according to the agar dilution method using Mueller Hinton agar. The compounds to be tested were diluted twice in stages and then introduced into the agar plate. On this agar plate the selected bacterial strains were inoculated and then incubated at 37 °C for 18 hours. The agar plate was then visually observed to determine the minimum concentration, at which the growth of bacterial strains was not observed, which is then designated as the MIC value of the relevant antibiotic compound.
(§2) In the same manner, the MIC value of the compound I, II, III or IV in the presence of sulbactam was measured. In this case, the concentration of sulbactam in each agar plate should be constantly maintained at about 13µg/ml, which corresponds to approximately a quarter of the MIC value of sulbactam, to ensure that the decrease in MIC value of the compounds I - IV in the presence of sulbactam is not affected by the antibacterial activity of sulbactam itself. […] As a result of this experiment, the MIC values of each of four kinds of antibiotics, i.e. the compound I, II, III or IV used alone and in the presence of sulbactam were compared to each other and then the synergistic effect of the composition of the present invention was estimated.

[2] = system: Staphylococcus aureus 285; conditions: Staphylococcus aureus, 285, 18 h
Protocol: as §1, §2

[3] = system: Escherichia coli DC 0; conditions: DC0, 18 h
Protocol: as §1, §2

[4] = system: Escherichia coli 1507 E; conditions: 18 h
Protocol: as §1, §2

[5] = system: Escherichia coli TEM; conditions: 18 h
Protocol: as §1, §2

[6] = system: Pseudomonas aeruginosa 1771 M; conditions: 18 h
Protocol: as §1, §2

[7] = system: Staphylococcus aureus 503; conditions: Staphylococcus aureus, 503, 18 h
Protocol: as §1, §2

[8] = system: Escherichia coli DC 2; conditions: DC2, 18 h
Protocol: as §1, §2

[9] = read-out: MIC value, alone, Mueller Hinton agar, 37°C
[10] = read-out: MIC value, in the presence of sulbactam(13μg/ml), Mueller Hinton agar, 37°C
[11] = alone, Mueller Hinton agar, 37°C, read-out: MIC value
[12] = in the presence of sulbactam(13μg/ml), Mueller Hinton agar, 37°C, read-out: MIC value

For `CNC(=O)C[C@@H](N)C(=O)N[C@@H](C(=O)N[C@@H]1C(=O)N2[C@@H]1SC(C)(C)[C@@H]2C(=O)O)c1ccc(O)cc1` [compound IV, 6-[D-2-(D-2-amino-3-N-methylcarbamoyl-propionamido)-2-p-hydroxyphenylacetamido]penicillanic acid], the MIC [1, 9] was 0.781 µg/mL, the MIC [1, 10] was < 0.002 µg/mL and the MIC [2, 9] was 6.25 µg/mL. For the same molecule, the MIC [2, 10] was 1.56 µg/mL, the MIC [3, 9] was 3.12 µg/mL and the MIC [3, 10] was 0.781 µg/mL. For the same molecule, the MIC [4, 9] was 3.12 µg/mL, the MIC [4, 10] was 0.098 µg/mL and the MIC [5, 9] was > 100 µg/mL. For the same molecule, the MIC [5, 10] was 25 µg/mL, the MIC [6, 9] was 0.391 µg/mL and the MIC [6, 10] was 0.025 µg/mL. It also gave an MIC [7, 9] of 6.25 µg/mL, an MIC [7, 10] of 1.56 µg/mL and an MIC [8, 9] of 0.781 µg/mL. It also gave an MIC [8, 10] of 0.195 µg/mL.
For `C=N[C@@H](C(=O)NC1C(=O)N2[C@@H]1SC(C)(C)[C@@H]2C(=O)O)c1ccc(O)cc1` (stereo partly drawn) [compound II, 6-[D-2-(methyleneamino)-2-(4-hydroxyphenyl)acetamido]penicillanic acid], the MIC [1, 11] was 1.56 µg/mL, the MIC [1, 12] was < 0.002 µg/mL and the MIC [2, 11] was 1.56 µg/mL. It also gave an MIC [2, 12] of 0.195 µg/mL, an MIC [3, 11] of 6.25 µg/mL and an MIC [3, 12] of 3.12 µg/mL. The MIC [4, 11] was 6.25 µg/mL, the MIC [4, 12] was 0.098 µg/mL and the MIC [5, 9] was > 100 µg/mL. For the same molecule, the MIC [5, 10] was > 100 µg/mL, the MIC [6, 11] was 0.195 µg/mL and the MIC [6, 12] was 0.049 µg/mL. For the same molecule, the MIC [7, 11] was 1.56 µg/mL, the MIC [7, 12] was 0.098 µg/mL and the MIC [8, 11] was 1.56 µg/mL. For the same molecule, the MIC [8, 12] was 0.781 µg/mL.
For `CCN1CCN(C(=O)N[C@@H](C(=O)NC2C(=O)N3[C@@H]2SC(C)(C)[C@@H]3C(=O)O)c2ccc(O)cc2)C(=O)C1=O` (stereo partly drawn) [compound III, 6-[D-2-(4-ethyl-2,3-dioxopiperazinocarbonylamino)-2-(4-hydroxyphenyl)acetamido]penicillanic acid], the MIC [1, 11] was 0.195 µg/mL, the MIC [1, 12] was < 0.002 µg/mL and the MIC [2, 11] was 3.12 µg/mL. The MIC [2, 12] was 0.781 µg/mL, the MIC [3, 12] was 0.195 µg/mL and the MIC [3, 9] was 1.56 µg/mL. The MIC [4, 11] was 0.781 µg/mL, the MIC [4, 12] was 0.098 µg/mL and the MIC [5, 9] was > 100 µg/mL. It also gave an MIC [5, 10] of 1.56 µg/mL, an MIC [6, 11] of 0.098 µg/mL and an MIC [6, 12] of 0.025 µg/mL. The MIC [7, 11] was 6.25 µg/mL, the MIC [7, 12] was 0.391 µg/mL and the MIC [8, 11] was 0.098 µg/mL. It also gave an MIC [8, 12] of 0.025 µg/mL.
With `CC1(C)S[C@@H]2C(NC(=O)[C@H](N)c3ccc(O)cc3)C(=O)N2[C@H]1C(=O)O` (stereo partly drawn) [compound I, 6-[D(-)-α-amino-p-hydroxyphenylacetamido]penicillanic acid] the MIC [1, 11] was 1.56 µg/mL, the MIC [1, 12] was < 0.002 µg/mL and the MIC [2, 11] was 1.56 µg/mL. For the same molecule, the MIC [2, 12] was 0.195 µg/mL, the MIC [3, 11] was 6.25 µg/mL and the MIC [3, 12] was 0.781 µg/mL. For the same molecule, the MIC [4, 11] was 3.12 µg/mL, the MIC [4, 12] was 0.391 µg/mL and the MIC [5, 9] was > 100 µg/mL. For the same molecule, the MIC [5, 10] was > 100 µg/mL, the MIC [6, 11] was 0.098 µg/mL and the MIC [6, 12] was 0.098 µg/mL. For the same molecule, the MIC [7, 11] was 1.56 µg/mL, the MIC [7, 12] was 0.098 µg/mL and the MIC [8, 9] was 1.56 µg/mL. The MIC [8, 10] was 0.781 µg/mL.
With `CC1(C)[C@H](C(=O)O)N2C(=O)C[C@H]2S1(=O)=O` [sulbactam] the MIC [1, 9] was 100 µg/mL, the MIC [2, 9] was 100 µg/mL and the MIC [3, 9] was > 100 µg/mL. The MIC [4, 9] was > 100 µg/mL, the MIC [5, 9] was > 100 µg/mL and the MIC [6, 9] was 50 µg/mL. The MIC [7, 9] was 100 µg/mL and the MIC [8, 9] was 100 µg/mL.
